Experiments:
Assay type in all cases: in vivo
zea mays [1] = test: Pre-emergence herbicidal activity, glasshouse pot test; settings: pre-emergence spray, rate 1000 g/ha, evaluated after 13 days, scale 0-5
Description: (§1) Seeds of a variety of test species were sown in standard soil in pots. After cultivation for one day (pre-emergence) under controlled conditions in a glasshouse (at 24/16° C., day/night; 14 hours light; 65% humidity), the plants were sprayed with an aqueous spray solution derived from the formulation of the technical active ingredient in acetone/water (50:50) solution containing 0.5% Tween 20 (polyoxyethelyene sorbitan monolaurate, CAS RN 9005-64-5). The test plants were then grown in a glasshouse under controlled conditions (at 24/16° C., day/night; 14 hours light; 65% humidity) and watered twice daily. After 13 days, the test was evaluated (5=total damage to plant; 0=no damage to plant).
(§2) ABUTH=Abutilon theophrasti; SOLNI=Solanum nigrum; AMARE=Amaranthus retroflexus; SETFA=Setaria faberi; ALOMY=Alopecurus myosuroides; ECHCG=Echinochloa crus-galli, ZEAMX=zea mays.

Amaranthus retroflexus [2] = test: as above; settings: pre-emergence spray, rate 1000 g/ha, evaluated after 13 days, scale 0-5
Description: as §1, §2

Setaria faberi [3] = test: as above; settings: pre-emergence spray, rate 1000 g/ha, evaluated after 13 days, scale 0-5
Description: as §1, §2

Abutilon theophrasti [4] = test: as above; settings: pre-emergence spray, rate 1000 g/ha, evaluated after 13 days, scale 0-5
Description: as §1, §2

Echinochloa crus-galli [5] = test: as above; settings: pre-emergence spray, rate 1000 g/ha, evaluated after 13 days, scale 0-5
Description: as §1, §2

Alopecurus myosuroides [6] = test: as above; settings: pre-emergence spray, rate 1000 g/ha, evaluated after 13 days, scale 0-5
Description: as §1, §2

zea mays [7] = test: Post-emergence herbicidal activity, glasshouse pot test; design: key: 0 = no damage to plant, 5 = total damage to plant; settings: Application post-emergence, rate 1000 g/ha, evaluated after 13 days
Description: (§3) Seeds of a variety of test species were sown in standard soil in pots. After 8 days cultivation (post-emergence) under controlled conditions in a glasshouse (at 24/16° C., day/night; 14 hours light; 65% humidity), the plants were sprayed with an aqueous spray solution derived from the formulation of the technical active ingredient in acetone/water (50:50) solution containing 0.5% Tween 20 (polyoxyethelyene sorbitan monolaurate, CAS RN 9005-64-5). The test plants were then grown in a glasshouse under controlled conditions (at 24/16° C., day/night; 14 hours light; 65% humidity) and watered twice daily. After 13 days, the test was evaluated (5=total damage to plant; 0=no damage to plant).
as §2

Amaranthus retroflexus [8] = test: as above; design: key: 0 = no damage to plant, 5 = total damage to plant; settings: Application post-emergence, rate 1000 g/ha, evaluated after 13 days
Description: as §3, §2

Setaria faberi [9] = test: as above; design: key: 0 = no damage to plant, 5 = total damage to plant; settings: Application post-emergence, rate 1000 g/ha, evaluated after 13 days
Description: as §3, §2

Abutilon theophrasti [10] = test: as above; design: key: 0 = no damage to plant, 5 = total damage to plant; settings: Application post-emergence, rate 1000 g/ha, evaluated after 13 days
Description: as §3, §2

Echinochloa crus-galli [11] = test: as above; design: key: 0 = no damage to plant, 5 = total damage to plant; settings: Application post-emergence, rate 1000 g/ha, evaluated after 13 days
Description: as §3, §2

Alopecurus myosuroides [12] = test: as above; design: key: 0 = no damage to plant, 5 = total damage to plant; settings: Application post-emergence, rate 1000 g/ha, evaluated after 13 days
Description: as §3, §2

| Compound | ZEAMX damage score, application pre-emergence (zea mays [1]) | AMARE damage score, application pre-emergence (Amaranthus retroflexus [2]) | SETFA damage score, application pre-emergence (Setaria faberi [3]) | ABUTH damage score, application pre-emergence (Abutilon theophrasti [4]) | ECHCG damage score, application pre-emergence (Echinochloa crus-galli [5]) | ALOMY damage score, application pre-emergence (Alopecurus myosuroides [6]) | ZEAMX herbicidal damage score (zea mays [7]) | AMARE herbicidal damage score (Amaranthus retroflexus [8]) | SETFA herbicidal damage score (Setaria faberi [9]) | ABUTH herbicidal damage score (Abutilon theophrasti [10]) | ECHCG herbicidal damage score (Echinochloa crus-galli [11]) | ALOMY herbicidal damage score (Alopecurus myosuroides [12]) |
| --- | --- | --- | --- | --- | --- | --- | --- | --- | --- | --- | --- | --- |
| COC1=C(OC)C(O)N(c2cc(C(F)(F)F)ccn2)C1=O (stereo not shown) [AK8] | 2 | 5 | 3 | 5 | 4 | 3 | 3 | 5 | 5 | 5 | 5 | 4 |
| CC1=C(Cl)C(=O)N(c2cc(C(F)(F)F)cc(Cl)n2)C1O (stereo not shown) [AF37] | 0 | 0 | 1 | 0 | 0 | 3 | 1 | 0 | 4 | 2 | 4 | 4 |
| CC1=C(Cl)C(=O)N(c2ncc(C(F)(F)F)cc2F)C1O (stereo not shown) [AF63] | 0 | 0 | 0 | 0 | 0 | 0 | 0 | 0 | 1 | 1 | 1 | 1 |
| COC1=C(C)C(O)N(c2cc(C(F)(F)F)c(Cl)nn2)C1=O (stereo not shown) [BI9] | 2 | 5 | 2 | 1 | 4 | 4 | 4 | 5 | 5 | 5 | 5 | 5 |
| COC1=C(C)C(O)N(c2cc(C(C)C)c(C(=O)NC(C)(C)C#N)cn2)C1=O (stereo not shown) [AI31] | 2 | 5 | 2 | 2 | 3 | 3 | 2 | 5 | 5 | 5 | 5 | 4 |
| COC1=C(C)C(O)N(c2cc(C)c(-c3cnn(C)c3)nn2)C1=O (stereo not shown) [BI33] | 0 | 0 | 0 | 0 | 0 | 0 | 1 | 4 | 2 | 0 | 2 | 2 |
| CC1=C(Cl)C(=O)N(c2ncc(F)cc2F)C1O (stereo not shown) [AF62] | 0 | 2 | 0 | 2 | 0 | 0 | 0 | 0 | 1 | 2 | 1 | 1 |
| CC1=C(Cl)C(=O)N(c2cc(C(C)(F)F)ncn2)C1O (stereo not shown) [CF15] | 2 | 5 | 5 | 5 | 5 | 3 | 4 | 5 | 5 | 5 | 5 | 4 |
| COC(=O)c1cnc(N2C(=O)C(Cl)=C(C)C2O)cc1C(F)(F)F (stereo not shown) [AF42] | 0 | 0 | 0 | 0 | 0 | 0 | 1 | 4 | 5 | 4 | 4 | 3 |
| CC1=C(Cl)C(=O)N(c2cc(Cl)ncn2)C1O (stereo not shown) [CF1] | 2 | 5 | 0 | 1 | 4 | 3 | 1 |  | 1 | 0 | 4 | 4 |
| CC1=C(Cl)C(=O)N(c2cc(C(F)(F)F)c(Br)cn2)C1O (stereo not shown) [AF57, 1-[5-bromo-4-(trifluoromethyl)-2-pyridyl]-4-chloro-2-hydroxy-3-methyl-2H-pyrrol-5-one] | 0 |  | 0 | 1 | 0 | 3 | 3 | 5 | 5 | 5 | 5 | 5 |
